Assay results published in patent US20240148821A1, “PHARMACEUTICAL USE OF CYCLIC PEPTIDE COMPOUND” (CHUGAI SEIYAKU KABUSHIKI KAISHA, priority 2021, published 2024).
pIC50: −log10 of the molar value. Numbered stars: 1 amine (or outer) side, 2 acyl side, 3 side chain; on linkers, the order of the positions; unused ones are H or OH. Bridge positions count the residues as written; N and C are the ends. Square brackets hold non-standard residues; d marks the D form. Peptide text beside a SMILES is read from it. * marks the point of attachment. hPhe(3,5-F2-4-CF3) = N[C@@H](CCc1cc(F)c(C(F)(F)F)c(F)c1)C(=O)O; hPhe(3-Cl-4-CF3) = N[C@@H](CCc1ccc(C(F)(F)F)c(Cl)c1)C(=O)O; hPhe(3-F,4-CF3) = N[C@@H](CCc1ccc(C(F)(F)F)c(F)c1)C(=O)O; X19 = O=C([C@@H]1C[C@@H](N2CCC(F)(F)CC2)CN1[*:1])[*:2]; NEtPhe(4-CF3) = CCN[C@@H](Cc1ccc(C(F)(F)F)cc1)C(=O)O; 3Oxa8azabicyclo(3.2.1)octane = C1CC2COCC1N2*; NMeAbu(4,4,4-F3) = CN[C@@H](CC(F)(F)F)C(=O)O; NMePhe(4-Cl) = CN[C@@H](Cc1ccc(Cl)cc1)C(=O)O; NMePhe(4-Me) = CN[C@@H](Cc1ccc(C)cc1)C(=O)O; NMedβ3hAla = C[C@H](CC(=O)[*:2])N(C)[*:1]; NMeGly(cPent) = CN[C@H](C(=O)O)C1CCCC1; NMeCha = CN[C@@H](CC1CCCCC1)C(=O)O; Hyp = O=C(O)[C@@H]1C[C@@H](O)CN1; NMeChg = CN[C@H](C(=O)O)C1CCCCC1; NMeI = CC[C@H](C)[C@H](NC)C(=O)O; NMeD = CN[C@@H](CC(=O)O)C(=O)O; NMeL = CN[C@@H](CC(C)C)C(=O)O; NMeV = CN[C@H](C(=O)O)C(C)C; NMeS = CN[C@@H](CO)C(=O)O; NMeA = CN[C@@H](C)C(=O)O; NMeAib = CNC(C)(C)C(=O)O; Piperidide = C1CCN(*)CC1; Pyrrolidide = C1CCN(*)C1; Ac5c = NC1(C(=O)O)CCCC1; Aze = O=C(O)[C@@H]1CCN1; Ac4c = NC1(C(=O)O)CCC1; Sar = CNCC(=O)O; Propyl = CCC*

Experiments:
[1] = test system: Human pancreatic cancer cell line AsPC-1 (G12D mutation Kras); assay: AsPC-1 cell growth inhibition (AsPC-1 CGI); format: cell-based; details: read-out: AsPC-1 cell growth inhibition, 50% growth inhibitory concentration (IC50 value); 96 hours, CellTiter-Glo, values classified in ranges
Protocol: Test compounds were serially dilated with dimethyl sulfoxide, and 200 nL was then dispensed to a U-bottom 96-well plate using Labcyte Echo. […] The cell suspension was dispensed to a. plate containing a test compound at 100 μL per well and incubated at 37° C. in a 5% carbon dioxide gas incubator. 96 hours later, 80 μL of CellTiter-Glo (Promega) was added to each well and fluorescence was measured.

[2] = biological target: protein-protein interaction between Kras and SOS1 (biotin-tagged human Kras loaded with GDP, His-tagged human SOS1) (Homo sapiens (Human), UniProt P01116, G12D); assay: Protein-protein interaction inhibition between Kras and SOS1 (KrasG12D-SOS PPI) using AlphaScreen; format: biochemical; details: AlphaScreen; biotin-tagged human Kras loaded with GDP, His-tagged human SOS1; read-out: KRAS G12D-SOS PPI IC50;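 further: kras produced in E. coli, Ni-coupled donor beads and streptavidin acceptor beads, excitation 680 nm with emission detected at 520–620 nm via singlet oxygen transfer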

Row | Structure (SMILES) | pIC50 [1] | pIC50 [2]
1 | CCO[C@@H]1C[C@H]2C(=O)NC3(CCC3)C(=O)N(C)[C@@H]([C@@H](C)CC)C(=O)N(C)[C@H](C)CC(=O)N(C)[C@@H](CC(C)C)C(=O)N[C@@H]([C@@H](C)CC)C(=O)N(C)[C@@H](C)C(=O)N3CC[C@H]3C(=O)N(CC)[C@@H](Cc3ccc(C(F)(F)F)cc3)C(=O)N(C)CC(=O)N[C@@H](CCc3cc(F)c(C(F)(F)F)c(F)c3)C(=O)N2C1 [Compound 731] (cyclo([Ac4c][NMeI][NMedβ3hAla][NMeL]I[NMeA][Aze][NEtPhe(4-CF3)][Sar][hPhe(3,5-F2-4-CF3)][Hyp](Et))) | ≥ 7.70 | 8.46
2 | CCO[C@@H]1C[C@H]2C(=O)NC3(CCCC3)C(=O)N(C)[C@@H](C3CCCCC3)C(=O)N(C)[C@H](C(=O)N3C4CCC3COC4)CC(=O)N(C)[C@@H](CC(C)C)C(=O)N[C@@H]([C@@H](C)CC)C(=O)N(C)CC(=O)N(C)CC(=O)N(C)[C@@H](CC3CCCCC3)C(=O)N(C)CC(=O)N[C@@H](CCc3cc(F)c(C(F)(F)F)c(F)c3)C(=O)N2C1 [Compound 1341] ([NMeL]I[Sar][Sar][NMeCha][Sar][hPhe(3,5-F2-4-CF3)][Hyp](Et)[Ac5c][NMeChg][NMeD]-{3Oxa8azabicyclo(3.2.1)octane}; lactam N-11) | ≥ 7.70 | 9.09
3 | CCO[C@@H]1C[C@H]2C(=O)NC3(CCCC3)C(=O)N(C)[C@@H](C3CCCCC3)C(=O)N(C)[C@H](C(=O)N3CCCC3)CC(=O)N(C)[C@@H](CC(F)(F)F)C(=O)N[C@@H]([C@@H](C)CC)C(=O)N(C)CC(=O)N(C)CC(=O)N(C)[C@@H](CC3CCCCC3)C(=O)N(C)CC(=O)N[C@@H](CCc3ccc(C(F)(F)F)c(Cl)c3)C(=O)N2C1 [Compound 1369] ([NMeAbu(4,4,4-F3)]I[Sar][Sar][NMeCha][Sar][hPhe(3-Cl-4-CF3)][Hyp](Et)[Ac5c][NMeChg][NMeD]-Pyrrolidide; lactam N-11) | ≥ 7.70 | 9.26
4 | CC[C@H](C)[C@@H]1NC(=O)[C@H](CC(C)C)N(C)C(=O)C[C@@H](C(=O)N(C)C)N(C)C(=O)[C@H]([C@@H](C)CC)N(C)C(=O)C2(CCCC2)NC(=O)[C@@H]2CCCN2C(=O)[C@H](CCc2ccc(C(F)(F)F)c(Cl)c2)NC(=O)CN(C)C(=O)[C@H](Cc2ccc(C)cc2)N(C)C(=O)[C@@H]2CCN2C(=O)[C@H](C)NC1=O [Compound 840] ([NMeL]IA[Aze][NMePhe(4-Me)][Sar][hPhe(3-Cl-4-CF3)]P[Ac5c][NMeI][NMeD]-NMe2; lactam N-11) | ≥ 7.70 | 8.92
5 | CCCOC[C@H]1C(=O)N(C)CC(=O)N[C@@H](CCc2ccc(C(F)(F)F)c(F)c2)C(=O)N2CCC[C@H]2C(=O)NC2(CCCC2)C(=O)N(C)[C@@H](C2CCCC2)C(=O)N(C)[C@H](C(=O)N(C)C)CC(=O)N(C)[C@@H](CC(C)C)C(=O)N[C@@H]([C@@H](C)CC)C(=O)N(C)[C@@H](C)C(=O)N2CC[C@H]2C(=O)N1C [Compound 289] ([NMeL]I[NMeA][Aze][NMeS](Propyl)[Sar][hPhe(3-F,4-CF3)]P[Ac5c][NMeGly(cPent)][NMeD]-NMe2; lactam N-11) | ≥ 7.70 | 9.52
6 | CC[C@H](C)[C@@H]1NC(=O)[C@H](CC(C)C)N(C)C(=O)C[C@@H](C)N(C)C(=O)[C@H](CC(C)C)NC(=O)C(C)(C)N(C)C(=O)[C@H](CC(C)C)NC(=O)[C@H](CCc2cc(F)c(C(F)(F)F)c(F)c2)NC(=O)CN(C)C(=O)[C@H](Cc2ccc(Cl)cc2)N(C)C(=O)CN(C)C(=O)CN(C)C1=O [Compound 687] (cyclo(I[Sar][Sar][NMePhe(4-Cl)][Sar][hPhe(3,5-F2-4-CF3)]L[NMeAib]L[NMedβ3hAla][NMeL])) | < 6.30 | 7.80
7 | CC[C@H](C)[C@@H]1NC(=O)[C@H](C)N(C)C(=O)C[C@@H](C(=O)N2CCCCC2)N(C)C(=O)[C@H](C(C)C)N(C)C(=O)C2(CCCC2)NC(=O)[C@@H]2C[C@@H](N3CCC(F)(F)CC3)CN2C(=O)[C@H](CCc2ccc(C(F)(F)F)c(Cl)c2)NC(=O)CN(C)C(=O)[C@H](CC2CCCCC2)N(C)C(=O)CN(C)C(=O)CN(C)C1=O [Compound 914] ([NMeA]I[Sar][Sar][NMeCha][Sar][hPhe(3-Cl-4-CF3)][X19][Ac5c][NMeV][NMeD]-Piperidide; lactam N-11) | < 6.30 | 8.96
